In data set [1] the target is T1, S100A9 (Homo sapiens, UniProt P06702).
T1 sequence (P06702 1-114): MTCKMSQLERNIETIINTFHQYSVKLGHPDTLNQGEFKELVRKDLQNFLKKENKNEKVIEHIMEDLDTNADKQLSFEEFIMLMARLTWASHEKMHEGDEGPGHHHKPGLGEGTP
Description: TLR4-S100A9 ELISA: blocking of S100A9 binding to TLR4/MD2. Conditions: S100A9 2 μg/ml, 100 μM CES271-Cy5.5, two hours at room temperature. The method, then:
FIG. 5: ELISA-based blocking study showing binding of S100A9 protein to TLR4/MD2 in the presence or absence of quinoline-3-carboxamide compounds covalently linked to a label, in this case Cy5.5-CES271.
Cy5.5-CES271 was successfully synthesized as described in the previous example. Studies were then conducted to verify that Cy5.5-CES271 maintained strong binding affinity for S100A9. In this regard, a specific ELISA (Enyme-linked Immunosorbent Assay) was developed to analyse S100A9 binding to TLR4. In this newly developed assay, the binding of S100A9 to TLR4 can be measured.
Briefly, TLR4/MD2 (3146-TM-050/CF, R&D Systems) was coupled to the wells of a 96-well plate and served as capturing molecule. After blocking of the unspecific binding sites by PBS/5% skim milk powder, plates were washed three times. S100A9 protein was added at a concentration of 2 μg/ml in the presence or absence of 100 μM CES271-Cy5.5 and incubated for two hours at room temperature. Unbound S100 protein was removed by washing the plates for three times, followed by the addition of a primary anti-S100A9-antibody (1 μg/ml, polyclonal, rabbit). After a washing step, the secondary anti-rabbit-IgG-antibody coupled to HRP (1 μg/ml, Cell Signalling) was added. TMB was used as substrate for HRP to quantify binding efficiency by absorbance readings at 450 nm in an ELISA reader (Anthos Mikrosysteme).

Data set [2] in a line: Biodistribution of Cy5.5-CES271 in healthy Balb/c mice (fluorescence intensity in organs). Type of data set: in vivo. The method, then:
FIG. 16: Biodistribution of Cy5.5-CES271 in healthy Balb/c mice. The tracer was intravenously injected at a dose of 2 nmol per mouse.
The biodistribution of Cy5.5-CES271 and [^99mTc]FEB054 injected to healthy Balb/c mice was analysed by the measurement of fluorescence intensity in various organs. […] The tracer was injected at a dose of 2 nmol per mouse. […] This kinetics, that is different to previously published antibody based tracer anti-S100A9-Cy5.5^7 kinetics favors Cy5.5-CES271 for imaging of organs neighboring the liver like the lung or the heart.

In data set [3] the target is T2, S100A9 (Mus musculus, UniProt P31725).
T2 construct: from tissue; host or cells: living mice (inflamed ear, joints) and explanted mouse heart, aorta and lungs
T2 sequence (P31725 2-113 limits assumed): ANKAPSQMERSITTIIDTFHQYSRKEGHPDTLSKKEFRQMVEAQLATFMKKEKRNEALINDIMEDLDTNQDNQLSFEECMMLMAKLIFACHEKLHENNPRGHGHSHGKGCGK
Description: Atherosclerosis mouse model (HypoE, HFC diet), FRI of the explanted aorta. The settings on record: 10 days HFC diet, 2 h p.i. Format: in vivo, SR-BI−/−/apoER61h/h mice (HypoE). As for the experimental part: FIG. 8: Accumulation of Cy5.5-CES271 in a mouse model of atherosclerosis in a HypoE mouse, 10 days on HFC diet.
Atherosclerosis is an inflammatory disease of the vessel wall. SR-BI^−/−/apoE^R61 h/h-mice (HypoE) are known to develop atherosclerotic lesions especially when set on a high fat and high choleresterol diet (HFC). Typical predeliction site is the aortic arch. 12-14 week old mice were set on HFC diet for 10 days. At day 10 of HFC diet Cy5.5-CES271 was injected i.v., the mice were sacrificed two hours p.i., the aortic arches were explanted, and measured ex-vivo by FRI.
The hearts and aorta were fixed overnight in 4% paraformaldehyde and embedded in paraffin. Sections measuring 4 μm in thickness were analyzed. For immunohistochemistry, paraffin skin sections (4 μm) were dewaxed, blocked with 10% fetal bovine serum, and incubated with rabbit anti-S100A9 or MAC-3 antibodies for 1 h at room temperature followed by a goat-anti-rabbit biotinylated antibody and 3,3′ diaminobenzidine (DAB).

A further data set deals with T3, murine S100A9 (Mus musculus, UniProt P31725).
T3 sequence (P31725 1-113): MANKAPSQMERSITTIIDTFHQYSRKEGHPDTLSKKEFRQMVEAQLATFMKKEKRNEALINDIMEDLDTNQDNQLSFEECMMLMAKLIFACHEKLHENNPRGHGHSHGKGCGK
The experiment in a line: Binding constant to coated S100A9 by fluorimetric measurement (one site saturation model). Conditions: murine S100A9 homodimer coated, 1 h at 4° C. As for the experimental part:
(§1) FIG. 15: Binding of Cy5.5-CES271 to human and murine S100A9. Estimation of the binding constant of Cy5.5-CES271 to human (A) and murine (B) S100A9. The constant was calculated using the one site saturation regression model. Each dot represents the mean value of four independent experiments.
(§2) The binding constant of Cy5.5-CES271 to murine and human S100A9 was determined by fluorimetric measurements. 0.3788 μM S100A9 (5 μg ml^−1 of homodimer S100A9) solved in 50 μl PBS was coated to the bottom of a 96-well plate and served as capturing molecule. For each S100A9 coated well a control well was used with 50 μl PBS alone. After a washing step, unspecific binding sites were blocked by PBS/5% skim milk powder. Cy5.5-CES271 was added at increasing concentrations. After 1 h incubation at 4° C., the supernatants were removed and the fluorescence intensity was measured with a fluorimeter. Non-linear regression analysis was performed with a one site saturation model, to calculate the binding constant of Cy5.5-CES271 to either murine or human S100A9. […] A strong binding affinity of the tracer to S100A9 could be observed that is not affected by the attachment of Cy5.5 to CES271.

Data set [4] concerns the target T1, S100A9. Described as above. The settings on record: human S100A9 homodimer coated, 1 h at 4° C. The method, then:
as §1, §2

The mark [5] stands for this setting: 2 nmol per mouse i.v., 1 and 3 h after injection.
[6] abbreviates: between 1 h and 3 h post injection, 2 nmol i.v.

In the case of “3-ethyl-2((1E,3E,5E)-5-(3-(1-(5-ethyl-4-hydroxy-1-methyl-2-oxo-1,2-dihydroquinolin-3-yl)-1,15-dioxo-2-phenyl-5,8,11-trioxa-2,14-diazanonadecan-19-yl)-1,1-dimethyl-6,8-disulfonato-1H-benzo[e]indol-2(3H)-ylidene)penta-1,3-dien-1-yl)-1,1-dimethyl-1H-benzo[e]indol-3-ium-6,8-disulfonate [Cy5.5-CES271]”, the “Blocking of binding of S100A9 to TLR4/MD2 (decrease of ELISA signal, absorbance 450 nm)” value on S100A9 [1] is given as “markedly block”. Further, in data set [2] (setting [5]), the Route of elimination entry is on record as “mainly driven by renal excretion” and the Tissue availability entry was “good tissue availability”. For the same substance, the “Tracer concentration in heart, spleen, muscle, brain” value in data set [2] (1 h compared with 3 h post injection, 2 nmol i.v.) is listed as “at the same level”. Further, the “Tracer concentration in kidney, liver and lung” value in data set [2] (3 h vs 1 h post injection, 2 nmol i.v.) was “higher tracer concentrations”. Also, in data set [2] (setting [6]), the “Change of tracer concentration in the blood” value is given as “decrease” and the “Change of tracer concentration in the urine” value is recorded as “increases significantly”. Besides, the “Kinetics compared to antibody based tracers” value in data set [2] (mouse, in vivo) was “much faster kinetics”. Besides, the “Accumulation in plaque lesions of the explanted aorta” value on S100A9 [3] is reported as “accumulation”. This substance also showed an equilibrium dissociation constant (Kd) at murine S100A9 of 2.66 µM. At S100A9 [4], the affinity, expressed as Kd, was 2.06 µM.

The values above are taken from US10350315B2, “Quinoline-3-carboxamide compounds and their use in diagnosis” (Westfaelische Wihelms-Universitaet Muenster, priority 2014, dated 2019).
